Assay results from patent US20110124588A1, “SYNERGISTIC ACTIVE INGREDIENT COMBINATIONS” (Bayer Cropscience AG, priority 2008, published 2011).
Read-outs that look alike come from different tables or passages of the source.

Tests used:
[1] = tested on: Tetranychus urticae; assay: Tetranychus urticae test (OP-resistant/spray treatment); type: in vivo, greenhouse red spider mite (Tetranychus urticae); conditions: for Kill in % after 6 d: 4 g/ha
Description: (§1) The expected activity of a given combination of two active compounds can be calculated as follows, according to S. R. Colby, Weeds 15 (1967), 20-22:
(§2) X is the kill rate, expressed as a percentage of the untreated control, when employing active compound A at an application rate of m g/ha or in a concentration of m ppm, Y is the kill rate, expressed as a percentage of the untreated control, when employing active compound B at an application rate of n g/ha or in a concentration of n ppm and E is the kill rate, expressed as a percentage of the untreated control, when employing active compounds A and B at application rates of m and n g/ha or in a concentration of m and n ppm, then
(§3) If the actual kill rate exceeds the calculated value, the kill of the combination is superadditive, i.e. a synergistic effect is present. In this case, the actually observed kill rate must exceed the value calculated using the above formula for the expected kill rate (E).
(§4) solvents: 78 parts by weight of acetone • • 1.5 parts by weight of dimethylformamide emulsifier: 0.5 part by weight of alkylaryl polyglycol ether
(§5) To produce a suitable preparation of active compound, 1 part by weight of active compound is mixed with the stated amounts of solvents and emulsifier, and the concentrate is diluted with emulsifier-containing water to the desired concentration.
Discs of bean leaves (Phaseolus vulgaris) which are infested by all stages of the greenhouse red spider mite (Tetranychus urticae) are sprayed with an active compound preparation of the desired concentration.
After the desired period of time, the activity in % is determined 100% means that all spider mites have been killed; 0% means that none of the spider mites have been killed.

[2] = tested on: Spodoptera frugiperda; assay: Spodoptera frugiperda larvae test (sprayed cabbage leaves); type: in vivo, army worm (Spodoptera frugiperda) larvae; conditions: for Kill in % after 6 d: single active compound
Description: as §1, §2, §3, §4, §5
Cabbage leaves (Brassica oleracea) are treated by spraying with the active compound preparation of the desired concentration and are populated with larvae of the army worm (Spodoptera frugiperda) while the leaves are still moist.
After the desired period of time, the kill in % is determined 100% means that all caterpillars have been killed; 0% means that none of the caterpillars have been killed. The kill rates determined are entered into Colby's formula.

[3] = tested on: Phaedon cochleariae; assay: Phaedon cochleariae larvae test (sprayed cabbage leaves); type: in vivo, mustard beetle (Phaedon cochleariae) larvae; conditions: single active compound
Method: as §3
Solvents: 78 parts by weight of acetone • • 1.5 parts by weight of dimethylformamide Emulsifier: 0.5 part by weight of alkylaryl polyglycol ether
After the desired period of time, the kill in % is determined 100% means that all beetle larvae have been killed; 0% means that none of the beetle larvae have been killed. The kill rates determined are entered into Colby's formula.

[4] = tested on: Myzus persicae; assay: Myzus persicae test (spray treatment of infested cabbage leaves); type: in vivo, green peach aphid (Myzus persicae)
Method: as §3, §4
After the desired period of time, the kill in % is determined 100% means that all aphids have been killed; 0% means that none of the aphids have been killed. The kill rates determined are entered into Colby's formula.

[5] = Tetranychus urticae, 144 h, read-out: Kill in % after 6 d
[6] = Spodoptera frugiperda, 144 h, read-out: Kill in % after 6 d
[7] = Myzus persicae, 144 h, read-out: Kill in % after 6 d
[8] = Tetranychus urticae, 48 h, read-out: Kill in % after 2 d
[9] = Phaedon cochleariae, 144 h, 6 d, read-out: Kill in % after 6 d
[10] = Phaedon cochleariae, 144 h, 100 g/ha, 6 d, read-out: Kill in % after 6 d

Work on `Cc1nn(C)c(Oc2ccccc2)c1C=NOCc1ccc(C(=O)OC(C)(C)C)cc1` [fenpyroximate] yielded a pest or weed control at 4 g/ha [1, 5] of 60%, a pest or weed control at 100 g/ha [2, 6] of 50% and a pest or weed control at 20 g/ha ([3]; Phaedon cochleariae, 48 h, 20 g/ha, 2 d, read-out: Kill in % after 2 d) of 0%. For the same compound, the pest or weed control at 0.8 g/ha [4, 7] was 0%.

For `CCOCn1c(-c2ccc(Cl)cc2)c(C#N)c(Br)c1C(F)(F)F` [chlorfenapyr], the pest or weed control at 4 g/ha [1, 8] was 50%, the pest or weed control at 4 g/ha ([2]; Spodoptera frugiperda, 48 h, read-out: Kill in % after 2 d) was 67% and the pest or weed control at 0.8 g/ha [3, 9] was 0%. The pest or weed control at 4 g/ha ([3]; Phaedon cochleariae, 144 h, 4 g/ha, 6 d, read-out: Kill in % after 6 d) was 83%.

In the case of `Cc1c(COC(=O)C2C(/C=C(\Cl)C(F)(F)F)C2(C)C)cccc1-c1ccccc1` (stereo not drawn) [bifenthrin], the pest or weed control at 4 g/ha [1, 5] was 40%, the pest or weed control at 0.8 g/ha [2, 6] was 0% and the pest or weed control at 0.8 g/ha [3, 9] was 50%. The pest or weed control at 0.032 g/ha [4, 7] was 0%.

With spinosad the “Kill in % after 6 d” value ([1]; single active compound) was 20% and the “Kill in % after 6 d” value ([2]; 0.8 g/ha) was 50%.

`Cc1nn(C)c(/C(OC(=O)C(C)(C)C)=C(\C#N)c2ccc(C(C)(C)C)cc2)c1C` [cyenopyrafen, (1E)-2-cyano-2-[4-(1,1-dimethylethyl)phenyl]-1-(1,3,4-trimethyl-1H-pyrazol-5-yl)ethenyl 2,2-dimethylpropanoate] gave a pest or weed control at 0.8 g/ha [1, 8] of 70% and a pest or weed control at 100 g/ha [3, 10] of 0%.

With `COCCOC(=O)C(C#N)(C(=O)c1ccccc1C(F)(F)F)c1ccc(C(C)(C)C)cc1` (stereo not drawn) [cyflumetofen, 2-methoxyethyl alpha-cyano-alpha-[4-(1,1-dimethylethyl)phenyl]-beta-oxo-2-(trifluoromethyl)benzenepropanoate] the pest or weed control at 0.8 g/ha [1, 8] was 50% and the pest or weed control at 100 g/ha [3, 10] was 0%.

With `CSC(=O)O/C(=C(/C#N)c1ccc(Cl)cc1)c1ccccc1C(F)(F)F` [IKA 2002] the “Kill in % after 6 d” value ([1]; single active compound) was 70%, the “Kill in % after 6 d” value ([2]; 100 g/ha) was 0% and the “Kill in % after 6 d” value ([3]; 100 g/ha, 6 d) was 0%.

For abamectin, the “Kill in % after 2 d” value ([1]; single active compound, 0.032 g/ha, after 2 d) was 0%, the “Kill in % after 6 d” value ([3]; 0.16 g/ha, 6 d) was 0% and the “Kill in % after 6 d” value ([4]; single active compound, 0.032 g/ha, 6 d) was 0%.

For `Cc1ccc(/N=C/N(C)/C=N/c2ccc(C)cc2C)c(C)c1` [amitraz], the pest or weed control at 20 g/ha [1, 5] was 80%, the pest or weed control at 0.8 g/ha ([4]; Myzus persicae, 24 h, read-out: Kill in % after 1 d) was 0% and the pest or weed control at 4 g/ha [4, 7] was 0%.
